Measurements published in US10980851B2, “Topical skincare compositions comprising Centella asiatica selected triterpenes” (The Procter & Gamble Company, priority 2018, dated 2021).

Test system: gene expression in tert keratinocytes
Test: Signature free connectivity mapping (C-map) similarity to CAST
Details: Concentration Tested 0.01% (wt. %); Fisher Discriminant Analysis
From the text: Signature Free Method of Querying Perturbagens Using Connectivity Mapping to Test Similarity Among Different Varieties of Perturbagens
The signature-free query method describes methodologies for identifying gene expression similarities among different perturbagens, such as cosmetic actives and/or natural extracts in an already existing tert connectivity map database. “Connectivity map” and “C-map” refer broadly to devices, systems, articles of manufacture, and methodologies for identifying relationships between cellular phenotypes or cosmetic conditions, gene expression, and perturbagens, such as cosmetic actives. […]
The tert C-map database consists of normalized gene expression data of approximately 3200 perturbagens. […] For each individual perturbagen, the output of the normalization includes an expression value for each probe analyzed in the gene expression profiling experiment. […]
The data matrix is analyzed using multivariate statistical analysis. Though described herein with reference to regularized Fisher Discriminant Analysis using a kernel version of the projection matrix, those of ordinary skill in the art will readily appreciate that other forms of multivariate statistical analysis may be employed in other embodiments. […]

Row | Molecule | Similarity (distance) Score from CAST
1 | Madecassoside | −0.031
2 | C[C@H]1[C@H](C)CC[C@]2(C(=O)O)CC[C@]3(C)C(=CC[C@@H]4[C@@]5(C)C[C@@H](O)[C@H](O)[C@@](C)(CO)[C@@H]5[C@H](O)C[C@]43C)[C@H]12 [Madecassic acid] | 0.770
